In the oligonucleotide strings, read from the 5' end, every base follows the letter of its sugar. An asterisk marks phosphorothioate; unmarked linkages are phosphodiester. Other units and linkages are bracketed, terminal groups are in braces. A string of capitals states the bases alone. e = 2'-O-(2-methoxyethyl) (MOE); [5mC] = 5-methylcytosine
Columns and labels:
Format in all cases: cell-based, human
[1] = system: PPARγ; assay: PPARγ mRNA expression in adipocytes (real-time PCR)
[2] = system: Glut4; assay: Glut4 mRNA expression in adipocytes (real-time PCR)
[3] = system: aP2; assay: aP2 mRNA expression in adipocytes (real-time PCR); settings: for aP2 mRNA: differentiating adipocytes transfected with oligomeric compound, Table 75; for AP2 mRNA: differentiating adipocytes, control = treatment with ISIS 342673
[4] = system: adipocytes; assay: Triglyceride accumulation assay in adipocytes
[5] = system: HSL; assay: HSL mRNA expression in adipocytes (real-time PCR)
[6] = differentiating adipocytes transfected with oligomeric compound, Table 75
[7] = Table 17, differentiating adipocytes, control = treatment with ISIS 342673
[8] = Table 18, differentiating adipocytes, control = treatment with ISIS 342673

| Substance | PPAR gamma mRNA [1, 6] | GLUT4 mRNA [2, 6] | aP2 mRNA [3] | TG (triglyceride accumulation) [4, 6] | HSL mRNA [5, 6] | PPAR gamma mRNA [1, 7] | GLUT4 mRNA [2, 7] | AP2 mRNA ([3]; Table 17) | TG (triglyceride accumulation) [4, 7] | HSL mRNA [5, 7] | PPAR gamma mRNA [1, 8] | GLUT4 mRNA [2, 8] | AP2 mRNA ([3]; Table 18) | TG (triglyceride accumulation) [4, 8] | HSL mRNA [5, 8] |
| --- | --- | --- | --- | --- | --- | --- | --- | --- | --- | --- | --- | --- | --- | --- | --- |
| 344268 (antisense ACACAAAUUCGGUUCUACAGGG; all 2'-MOE, all phosphorothioate, methylation of C and T or U not given here) [compound 344268] | 53 percentage of untreated control (UTC) | 22 percentage of untreated control (UTC) | 46 percentage of untreated control (UTC) | 57 percentage of untreated control (UTC) | 44 percentage of untreated control (UTC) | – | – | – | – | – | – | – | – | – | – |
| 344342 (AUGCUUUUUGGGGUAAGGGCUU; anti-miR; all 2'-MOE, all phosphorothioate, methylation of C and T or U not given here) [compound 344342] | 83 percentage of untreated control (UTC) | 71 percentage of untreated control (UTC) | 88 percentage of untreated control (UTC) | 88 percentage of untreated control (UTC) | 87 percentage of untreated control (UTC) | – | – | – | – | – | – | – | – | – | – |
| 327970 (antisense eA*e[5mC]*eA*eA*eA*eG*eT*eT*e[5mC]*eT*eG*eT*eA*eG*eT*eG*e[5mC]*eA*e[5mC]*eT*eG*eA) [compound 327970] | 46 percentage of untreated control (UTC) | 27 percentage of untreated control (UTC) | 29 percentage of untreated control (UTC) | 48 percentage of untreated control (UTC) | 25 percentage of untreated control (UTC) | – | – | – | – | – | – | – | – | – | – |
| 344338 (antisense AUGCCCUUUUAACAUUGCACUG; all 2'-MOE, all phosphorothioate, methylation of C and T or U not given here) [compound 344338] | 91 percentage of untreated control (UTC) | 66 percentage of untreated control (UTC) | 86 percentage of untreated control (UTC) | 103 percentage of untreated control (UTC) | 89 percentage of untreated control (UTC) | – | – | – | – | – | – | – | – | – | – |
| 344617 (GACGGGUGCGAUUUCUGUGUGAGA; all 2'-MOE, all phosphorothioate, methylation of C and T or U not given here) [compound 344617] | 72 percentage of untreated control (UTC) | 42 percentage of untreated control (UTC) | 59 percentage of untreated control (UTC) | 52 percentage of untreated control (UTC) | 55 percentage of untreated control (UTC) | – | – | – | – | – | – | – | – | – | – |
| 340343 (antisense ACAGGAGUCUGAGCAUUUGA; all 2'-MOE, all phosphorothioate, methylation of C and T or U not given here) [compound 340343] | 59 percentage of untreated control (UTC) | 33 percentage of untreated control (UTC) | 60 percentage of untreated control (UTC) | 35 percentage of untreated control (UTC) | 46 percentage of untreated control (UTC) | – | – | – | – | – | – | – | – | – | – |
| 328118 (antisense eT*eA*eT*eT*eA*eT*e[5mC]*eA*eG*e[5mC]*eA*eT*e[5mC]*eT*eG*e[5mC]*eT*eT*eG*e[5mC]*eA) [compound 328118] | 72 percentage of untreated control (UTC) | 57 percentage of untreated control (UTC) | 74 percentage of untreated control (UTC) | 69 percentage of untreated control (UTC) | 67 percentage of untreated control (UTC) | 80.2 percentage of control | 76.6 percentage of control | 92.7 percentage of control | 69.3 percentage of control | 85.3 percentage of control | – | – | – | – | – |
| 344343 (AUGCCCUUUCAUCAUUGCACUG; anti-miR; all 2'-MOE, all phosphorothioate, methylation of C and T or U not given here) [compound 344343] | 30 percentage of untreated control (UTC) | 4 percentage of untreated control (UTC) | 25 percentage of untreated control (UTC) | 32 percentage of untreated control (UTC) | 22 percentage of untreated control (UTC) | – | – | – | – | – | – | – | – | – | – |
| 328128 (antisense eA*eG*eT*eA*eA*e[5mC]*eT*eT*e[5mC]*eT*eT*eG*e[5mC]*eA*eG*eT*eT*eG*eG*eA) [compound 328128] | 86 percentage of untreated control (UTC) | 73 percentage of untreated control (UTC) | 90 percentage of untreated control (UTC) | 61 percentage of untreated control (UTC) | 72 percentage of untreated control (UTC) | 84.0 percentage of control | 101.9 percentage of control | 100.7 percentage of control | 98.7 percentage of control | 94.1 percentage of control | – | – | – | – | – |
| 344611 (ACAUUUUUCGUUAUUGCUCUUGA; anti-miR; all 2'-MOE, all phosphorothioate, methylation of C and T or U not given here) [compound 344611] | 34 percentage of untreated control (UTC) | 3 percentage of untreated control (UTC) | 34 percentage of untreated control (UTC) | 43 percentage of untreated control (UTC) | 31 percentage of untreated control (UTC) | – | – | – | – | – | – | – | – | – | – |
| 328100 (antisense eA*eA*eT*e[5mC]*eT*e[5mC]*eT*eG*e[5mC]*eA*eG*eG*e[5mC]*eA*eA*eA*eT*eG*eT*eG*eA) [compound 328100] | 48 percentage of untreated control (UTC) | 39 percentage of untreated control (UTC) | 47 percentage of untreated control (UTC) | 20 percentage of untreated control (UTC) | 49 percentage of untreated control (UTC) | – | – | – | – | – | 66.7 percentage of control | 74.2 percentage of control | 61.9 percentage of control | 71.5 percentage of control | 72.0 percentage of control |
| 328131 (antisense eA*eT*eA*eT*eG*eT*e[5mC]*eA*eT*eA*eT*e[5mC]*eA*eA*eA*e[5mC]*eT*e[5mC]*e[5mC]*eT*eA) [compound 328131] | 55 percentage of untreated control (UTC) | 56 percentage of untreated control (UTC) | 63 percentage of untreated control (UTC) | 74 percentage of untreated control (UTC) | 51 percentage of untreated control (UTC) | 88.2 percentage of control | 103.6 percentage of control | 95.4 percentage of control | 89.1 percentage of control | 81.8 percentage of control | – | – | – | – | – |
